3 compounds from patent EP0533084A1, “Pharmaceutical compositions comprising natriuretic peptides or neutral endopeptidase inhibitors for treating and preventing myointimal proliferation” (SCHERING CORPORATION, priority 1991, dated 1993) can be followed below.

This experiment deals with carotid artery intimal proliferation. As to the kind of experiment: balloon catheter injury of the left carotid artery in spontaneously hypertensive rats; morphometric and DNA analyses of intimal proliferation 14 days post-injury. The following applies: SHR, means ± SEM. The experiment is classed as in vivo, male spontaneously hypertensive rats. On the procedure:
Briefly, rats were anesthetized with Metofane (methoxyflurane) and a 2 Fr Fogarty embolectomy catheter was inserted into the left external carotid artery. The catheter was advanced 5 cm, inflated and retracted 3 times, turning the catheter 90^o each time. […] Animals were autopsied following exsanguination with ketamine (40 mg/kg) plus xylazine (10 mg/kg) i.m. anesthesia at specified timepoints following balloon injury.
Standard samples of the control right and balloon injured left carotid arteries were taken for DNA and morphometric analyses. […] The DNA results were expressed as the ratio of the left or ballooned carotid to the right control carotid. Three samples were taken for histology at 2.5 mm intervals cephalad from the DNA sample from each carotid artery and fixed in 4% paraformaldehyde containing 10% sucrose (wt/vol). Paraffin-embedded sections were stained with the Gomori trichrome-aldehyde fuchsin stain and computer-assisted morphometric analyses were performed using a Bioquant System IV image analyzer (R&M Biometrics Inc.). Morphometric measurements included: maximal intimal thickness (mm), intimal cross sectional area (mm²), and intimal cross sectional area/medial cross sectional area. […]

Where [1] appears, read: Exp. 5A, 10 mpk once a day, control see Exp. 1A.

In the case of `CC1(C)OCC(COC(=O)[C@H](Cc2ccccc2)N[C@@H](Cc2ccccc2)C(=O)NCCC(=O)O)O1` (stereo partly drawn) [compound A, N-[N-[(L)-[1-[(2,2-dimethyl-1,3-dioxolan-4-yl)methoxy]carbonyl]-2-phenylethyl]-L-phenylalanyl]-ß-alanine], under “Exp. 1, 90 mpk b.i.d.”, the “Carotid DNA (ballooned/ control)” value is recorded as 3.16 ±0.35, the “Intimal Area” value was determined as 0.99 ±0.010 mm^2, the “Intimal Area/ Medial Area” value is given as 0.653 ±0.067 and the “Maximal Intimal Thickness” value is recorded as 0.104 ±0.011 mm. For the same compound, under “Exp. 1A, 90 mpk b.i.d.”, the “Carotid DNA (ballooned/ control)” value is 4.60 ±0.67, the “Intimal Area” value turned out to be 0.099 ±0.010 mm^2, the “Intimal Area/ Medial Area” value was found to be 0.692 ±0.066 and the “Maximal Intimal Thickness” value is given as 0.110 ±0.010 mm.

Regarding `CCOC(=O)[C@H](CCSC)NC(=O)C(CSC(C)=O)Cc1ccccc1C` (stereo partly drawn) [compound B, N-[2-acetylthiomethyl-3-(2-methylphenyl)-propionyl]-methionine ethyl ester], for the setting “Exp. 2, 30 mpk b.i.d.”, the “Carotid DNA (ballooned/ control)” value was 3.47 ±0.40, the “Intimal Area” value came to 0.071 ±0.010 mm^2, the “Intimal Area/ Medial Area” value is recorded as 0.441 ±0.052 and the “Maximal Intimal Thickness” value is 0.085 ±0.009 mm. Where the note is “Exp. 2A, 10 mpk b.i.d.”, the “Carotid DNA (ballooned/ control)” value turned out to be 3.12 ±0.22, the “Intimal Area” value was determined as 0.106 ±0.010 mm^2, the “Intimal Area/ Medial Area” value amounted to 0.719 ±0.062 and the “Maximal Intimal Thickness” value was 0.112 ±0.012 mm. For the same compound, for the setting “Exp. 4, 10 mpk b.i.d.”, the “Carotid DNA (ballooned/ control)” value came to 4.38 ±0.73, the “Intimal Area” value is listed as 0.085 ±0.009 mm^2, the “Intimal Area/ Medial Area” value is given as 0.592 ±0.067 and the “Maximal Intimal Thickness” value worked out at 0.095 ±0.012 mm.

Turning to `CCOC(=O)[C@H](CCc1ccccc1)N[C@@H](C)C(=O)N1CC2(C[C@H]1C(=O)O)SCCS2` [compound D, spirapril, reference compound], under setting [1], the “Carotid DNA (ballooned/ control)” value is on record as 1.94 ±0.32, the “Intimal Area” value stood at 0.064 ±0.005 mm^2, the “Intimal Area/ Medial Area” value turned out to be 0.500 ±0.049 and the “Maximal Intimal Thickness” value was found to be 0.082 ±0.010 mm.
